Chromatographic logP, pest or weed control and log p data for 41 compounds are collected here from patent US20110245284A1, “Alkoxy- and Alkylthio-Substituted Anilinopyrimidines” (Bayer CropScience AG, priority 2008, published 2011).

Data set [1] in a line: logP by LC-MS on reversed-phase columns (C 18), method [b], acidic range pH 2.7. The data set is classed as physicochemical. Conditions: for chromatographic logP: pH 2.7, log p. The procedure:
(§1) The logP values were determined in accordance with EEC Directive 79/831 Annex V.A8 by HPLC (High Performance Liquid Chromatography) on reversed-phase columns (C 18), using the methods below:
[b] The LC-MS determination in the acidic range is carried out at pH 2.7 using the mobile phases 0.1% aqueous formic acid and acetonitrile (contains 0.1% formic acid), linear gradient from 10% acetonitrile to 95% acetonitrile.

Data set [2] in a line: logP by LC-MS on reversed-phase columns (C 18), method [c], neutral range pH 7.8. The class given is physicochemical. The procedure:
as §1
[c] The LC-MS determination in the neutral range is carried out at pH 7.8 using the mobile phases 0.001 molar aqueous ammonium bicarbonate solution and acetonitrile, linear gradient from 10% acetonitrile to 95% acetonitrile.

The test system of another data set is Leptosphaeria nodorum. The data set is described as follows: Leptosphaeria nodorum test (wheat) / protective. To be noted: Parastagonospora nodorum, active compound concentration 500 ppm, evaluation 7-9 days after inoculation, read-out: efficacy. The class given is in vivo. Here is the method:
Thereafter, the plants are placed in a greenhouse at 90% relative atmospheric humidity and a temperature of 22° C.

Setting [3] is: method [b], LC-MS, acidic range pH 2.7.
The mark [4] stands for this setting: method [c], LC-MS, neutral range pH 7.8.

A word on the chromatographic logP: it is lipophilicity estimated from chromatographic retention. High values mean a more lipophilic compound, low ones a more hydrophilic compound.

Consider `CC[S+]([O-])C(C)c1cccc(Nc2ncc(Cl)c(NC3CC3)n2)c1` (stereo not drawn) [Example 74], for which the chromatographic logP in data set [1] amounted to 1.48; in data set [2] (pH 7.8), 2.16. Also, in the data set with Leptosphaeria nodorum, the pest or weed control at 500 ppm is at least 70%.
For the compound `COCC(C)Oc1ccc(Nc2ncc(C(F)(F)F)c(NC3CC3)n2)cc1Cl` (stereo not drawn) [Example 78], the log p is 3.7[b] in data set [1] (pH 2.7) and 3.99[c]; in data set [2] (pH 7.8).
As to `COCC(C)Oc1ccc(Nc2ncc(C(F)(F)F)c(NC3CC3)n2)cc1C(F)(F)F` (stereo not drawn) [Example 80], the log p in data set [1] (pH 2.7) is 4.05[b]; in data set [2] (pH 7.8), 4.28[c];.
Take `COCCOc1ccc(Nc2ncc(C(F)(F)F)c(NC3CC3)n2)cc1F` [Example 81]: the log p was 2.89[b] in data set [1] (pH 2.7) and 3.27[c]; in data set [2] (pH 7.8).
On to `COCc1cccc(Nc2ncc(Br)c(NC3CC3C)n2)c1` (stereo not drawn) [Example 84], for which the log p is 2.15[b] in data set [1] (setting [3]) and 3.59[c]; in data set [2] (setting [4]).
In the case of `COCC(C)Oc1ccc(Nc2ncc(C(F)(F)F)c(NC3CC3)n2)cc1` (stereo not drawn) [Example 88], the log p was 2.71[b] in data set [1] (pH 2.7) and 3.45[c]; in data set [2] (pH 7.8).
Taken in the same sequence, the figures for `COCc1cccc(Nc2ncc(Cl)c(N3CCCCC3)n2)c1` [Example 89] were 3.14[b] and 4.2[c];.
Taken in the same sequence, the figures for `COCc1cccc(Nc2ncc(Cl)c(N3CCOCC3)n2)c1` [Example 90] were 2.4[b] and 2.87[c];.
Consider `CCCSc1cccc(Nc2ncc(Br)c(NC3CC3C)n2)c1` (stereo not drawn) [Example 99], for which the log p is 3.83[b] in data set [1] (setting [3]) and 5.09[c]; in data set [2] (setting [4]).
For the compound `CCCCSc1cccc(Nc2ncc(Br)c(NC3CCC3)n2)c1` [Example 104], the figures for the chromatographic logP in data set [1] and in data set [2] (pH 7.8) were 4.57 and 5.71, respectively. Further, in the data set with Leptosphaeria nodorum, the pest or weed control at 500 ppm is at least 70%.
Taken in the same sequence, the figures for `CCCS(=O)(=O)c1cccc(Nc2ncc(Br)c(NC3CC3)n2)c1` [Example 110] were 2.43, 2.99 and at least 70%.
For `CCCC[S+]([O-])c1cccc(Nc2ncc(C(F)(F)F)c(NC3CC3)n2)c1` (stereo not drawn) [Example 122], the chromatographic logP in data set [1] was determined as 2.94; in data set [2] (pH 7.8), 3.02.
Turning to `COC(C)c1cccc(Nc2ncc(Cl)c(NC(C)C3(Cl)CC3)n2)c1` (stereo not drawn) [Example 130], the log p in data set [1] (pH 2.7) is 3.72[b]; in data set [2] (pH 7.8), 4.65[c];.
Taken in the same sequence, the figures for `CCCC(C)SC(C)c1cccc(Nc2ncc(Cl)c(NC3CC3)n2)c1` (stereo not drawn) [Example 134] were 4.24[b] and 5.55[c];.
For the compound `CCCC(C)SC(C)c1cccc(Nc2ncc(C(F)(F)F)c(NC3CC3)n2)c1` (stereo not drawn) [Example 135], the log p in data set [1] (pH 2.7) was 5.53[b]; in data set [2] (pH 7.8), 5.8[c];.
Turning to `CCN(c1nc(Nc2cccc(COC)c2)ncc1Cl)C1CC1` [Example 137], the values for the log p in data set [1] (pH 2.7) and in data set [2] (pH 7.8) were 3.24[b] and 4.23[c];, respectively.
Take `CCCC[S+]([O-])c1cccc(Nc2ncc(Br)c(NC3CCC3)n2)c1` (stereo not drawn) [Example 152]: the values for the log p in data set [1] (pH 2.7) and in data set [2] (pH 7.8) were 2.67[b] and 3.5[c];, respectively.
On the same counts, the results for `CCS(=O)(=O)C(C)c1cccc(Nc2ncc(Br)c(NC3CC3)n2)c1` (stereo not drawn) [Example 154] are 1.76[b] and 2.7[c];.
Turning to `CCCC(C)S(=O)(=O)C(C)c1cccc(Nc2ncc(Cl)c(NC3CC3)n2)c1` (stereo not drawn) [Example 165], the results for the log p in data set [1] (pH 2.7) and in data set [2] (pH 7.8) were 2.48[b] and 3.56[c];, respectively.
Take `CCCC(C)[S+]([O-])C(C)c1cccc(Nc2ncc(Cl)c(NC3CC3)n2)c1` (stereo not drawn) [Example 166]: the log p in data set [1] (pH 2.7) was 2.2[b]; in data set [2] (pH 7.8), 3.1[c];.
On the same counts, the results for `CCCC(C)[S+]([O-])C(C)c1cccc(Nc2ncc(C(F)(F)F)c(NC3CC3)n2)c1` (stereo not drawn) [Example 167] are 3.34[b] and 3.85[c];.
`CNc1nc(Nc2cccc(COC)c2)ncc1Cl` [Example 172]: the figures for the chromatographic logP in data set [1] and in data set [2] (pH 7.8) were 1.18 and 2.44, respectively.
As to `CCOCCOCCSc1cccc(Nc2ncc(Cl)c(NC3CC3)n2)c1` [Example 180], the results for the log p in data set [1] (pH 2.7) and in data set [2] (pH 7.8) were 2.58[b] and 3.63[c];, respectively.
With `COCCOCCOc1ccc(Nc2ncc(C(F)(F)F)c(NC3CC3)n2)cc1C(F)(F)F` [Example 182], the log p in data set [1] (pH 2.7) was 3.52[b]; in data set [2] (pH 7.8), 3.79[c];.
On to `CCOCCOc1ccc(Nc2ncc(Cl)c(NC3CC3)n2)cc1C(F)(F)F` [Example 185], for which the chromatographic logP in data set [1] was found to be 2.91; in data set [2] (pH 7.8), 4.
Take `COCCOC(c1cccc(Nc2ncc(Cl)c(NC3CC3)n2)c1)C(F)(F)F` (stereo not drawn) [Example 215]: the log p is 2.63[b] in data set [1] (pH 2.7) and 3.61[c]; in data set [2] (pH 7.8).
On the same counts, the results for `COCCOC(c1cccc(Nc2ncc(C(F)(F)F)c(NC3CC3)n2)c1)C(F)(F)F` (stereo not drawn) [Example 216] are 3.72[b] and 3.9[c];.
Consider `COCCOC(c1cccc(Nc2ncc(Br)c(NC3CC3)n2)c1)C(F)(F)F` (stereo not drawn) [Example 217], for which the log p was 2.85[b] in data set [1] (pH 2.7) and 3.76[c]; in data set [2] (pH 7.8).
As to `COC(C)c1cccc(Nc2ncc(Br)c(NC3CC3C)n2)c1` (stereo not drawn) [Example 226], the log p in data set [1] (setting [3]) was 2.5[b]; in data set [2] (setting [4]), 3.98[c];.
As for `CCSc1cccc(Nc2ncc(C(F)(F)F)c(NC3CCC3C)n2)c1` (stereo not drawn) [Example 233], the chromatographic logP in data set [1] came to 4.89; in data set [2] (pH 7.8) it was 5.27.
`CCOC(COCc1cccc(Nc2ncc(C(F)(F)F)c(NC3CC3)n2)c1)OCC` [Example 238] displayed a chromatographic logP in data set [2] (pH 7.8) of 4.09.
For `CCOC(C)c1cccc(Nc2ncc(Br)c(NC3CC3C)n2)c1` (stereo not drawn) [Example 240], the log p in data set [1] (setting [3]) is 2.89[b]; in data set [2] (setting [4]), 4.42[c];.
`CC[S+]([O-])c1cccc(Nc2ncc(C(F)(F)F)c(NC3CC(C)C3)n2)c1` (stereo not drawn) [Example 242]: the values for the chromatographic logP in data set [1] and in data set [2] (pH 7.8) were 2.98 and 3.32, respectively.
On the same counts, the results for `COCCOC(C)c1cccc(Nc2ncc(Cl)c(NC3CC3)n2)c1` (stereo not drawn) [Example 243] are 2 and 3.26.
Take `CC[S+]([O-])c1cccc(Nc2ncc(C(F)(F)F)c(NC3CCC3C)n2)c1` (stereo not drawn) [Example 244]: the values for the chromatographic logP in data set [1] and in data set [2] (pH 7.8) were 2.9 and 3.3, respectively.
Taken in the same sequence, the figures for `CCCS(=O)(=O)c1cccc(Nc2ncc(C(F)(F)F)c(NC3CC3C)n2)c1` (stereo not drawn) [Example 245] were 3.43 and 3.61.
Taken in the same sequence, the figures for `CCC[S+]([O-])c1cccc(Nc2ncc(C(F)(F)F)c(NC3CC3C)n2)c1` (stereo not drawn) [Example 246] were 2.9 and 3.23.
In the case of `COCCCOC(C)c1cccc(Nc2ncc(C(F)(F)F)c(NC3CC3)n2)c1` (stereo not drawn) [Example 254], the chromatographic logP in data set [1] stood at 3.49; in data set [2] (pH 7.8) it was 3.98.
With `COCCOC(C)c1cccc(Nc2ncc(C(F)(F)F)c(NC3CC3)n2)c1` (stereo not drawn) [Example 257], the chromatographic logP was 3.05 in data set [1] and 3.61 in data set [2] (pH 7.8).
Take `CCOC(C)c1cccc(Nc2ncc(C(F)(F)F)c(NC3CC3)n2)c1` (stereo not drawn) [Example 258]: the results for the chromatographic logP in data set [1] and in data set [2] (pH 7.8) were 3.6 and 4.12, respectively.
Consider `CCSC(C)c1cccc(Nc2ncc(Cl)c(NC3CCC3C)n2)c1` (stereo not drawn) [Example 259], for which the chromatographic logP was found to be 3.59 in data set [1] and 5.3 in data set [2] (pH 7.8).
